Results published in US20250114456A1, “ENHANCED IMMUNOTHERAPEUTIC METHOD COMPRISING COMBINED ADMINISTRATION OF PHOTODYNAMIC / RADIOTHERAPEUTIC COMPOUNDS AND IMMUNOTHERAPEUTIC AGENTS” (Theralase Technologies, Inc., priority 2023, published 2025).

Assays:
VISTA and PDL1/L2 = details: multiple preclinical models; cited from earlier work
[1] = system: CD47 expression in A549 human Non-Small Cell Lung Cancer cells; assay: CD47 expression by flow cytometry, A549 cells, with or without radiation; type: cell-based; details: 4 hours, overnight incubation, FIG. 6
Procedure: A549 human Non-Small Cell Lung Cancer (“NSCLC”) cells were treated with RUVIDAR or RUTHERRIN for four (4) hours, then cells were treated with radiation or left untreated and then incubated further overnight before cell collection and analysis of CD47 expression by flow cytometry.

A549 human NSCLC cells = assay: ATP secretion quantification in supernatant, A549 cells, with radiation; type: cell-based; details: 4 hours, combined with radiation, supernatant 1 hour after, FIG. 8
Procedure: A549 human NSCLC cells were treated with RUVIDAR or RUTHERRIN for four (4) hours, then cells were treated with radiation or left untreated, and then incubated further for one (1) hour before collection of supernatant for ATP secretion quantification.

Row | SMILES | anti-tumor activity (VISTA and PDL1/L2) | CD47 expression ([1]; radiation treatment added) | CD47 expression ([1]; without radiation treatment) | ATP release (A549 human NSCLC cells)
1 | C[C@@H](O)[C@H](NC(=O)N[C@@H](CC(N)=O)c1nc([C@H](N)CO)no1)C(=O)O [CA-170] | demonstrated anti-tumor activity in multiple preclinical models | – | – | –
2 | Cc1ccnc(-c2cc(C)ccn2)c1.Cc1ccnc(-c2cc(C)ccn2)c1.[Cl-].[Cl-].[Ru+2].c1csc(-c2ccc(-c3ccc(-c4nc5c6cccnc6c6ncccc6c5[nH]4)s3)s2)c1 [RUVIDAR, Ru(4,4′-dimethyl-2,2′-bipyridine)2(2-(2′,2″:5″,2′-terthiophene)-imidazo[4,5-f][1,10]phenanthroline) chloride] | – | significantly reduced expression | downregulated CD47 expression | significantly increased ATP release
